# According to patent US7732444B2, “2-(amino-substituted)-4-aryl pyrimidines and related compounds useful for treating inflammatory diseases” (Millennium Pharmaceuticals, Inc., priority 2004, dated 2010):
# Molecular target: T1, full length PKC θ (Homo sapiens, UniProt Q04759)
# T1 construct: 15 μL of full length PKC θ (Panvera Corporation); purchased Panvera Corporation
# Test: PKC-theta isoform inhibition assay (HTRF, 384 well plate)
# Assay type: biochemical
# Details: full length PKC θ at 27 pM, peptide substrate 300 nM + 3 μM ATP, HTRF readout
# Method: An in vitro assay for detecting and measuring inhibition activity against PKC-theta isoform by candidate pharmacological agents is useful for evaluating and selecting a compound that modulates PKC-theta isoform. An IC50 value can be calculated after running the assay. Following is an assay protocol for measuring PKC-theta isoform.
# Per well of a 384 well plate, compounds at various concentrations in 5 μL of 20% DMSO were pre-incubated for about 30 minutes at about 25° C. with 15 μL of full length PKC θ (Panvera Corporation) at 27 pM in an assay buffer (25 mM Hepes, pH 7.5, 5 mM DTT, 10 mM MgCl2, 10 mM 2-glycerophosphate, 12.5 μg/mL 1,2-dioleoyl-rac-glycerol, 10 μg/mL L-α-phosphatidyl-L-serine, 0.1% Bovine Serum Albumin). 10 μL of peptide substrate (biotin-(CH2)6— RFARKGSLRQKNV —CONH2) at 300 nM+3 μM ATP were added to each well and incubated for about 1 hour before quenching with 10 μL of 250 mM EDTA. 40 μL of detection buffer (25 mM Hepes, pH 7.5, 100 mM KF, 0.1% Bovine Serum Albumin, 0.01% Tween20) containing 2 nM anti-phospho antibody 2B9 (MBL International) labeled with europium cryptate (Cis-Bio International) and 0.0064 μg/mL streptavidin-allophycocyanin (Prozyme) was added to each well and incubated for two hours. Signal was then read on a Discovery HTRF (Packard).
# T1 sequence (Q04759 whole entry): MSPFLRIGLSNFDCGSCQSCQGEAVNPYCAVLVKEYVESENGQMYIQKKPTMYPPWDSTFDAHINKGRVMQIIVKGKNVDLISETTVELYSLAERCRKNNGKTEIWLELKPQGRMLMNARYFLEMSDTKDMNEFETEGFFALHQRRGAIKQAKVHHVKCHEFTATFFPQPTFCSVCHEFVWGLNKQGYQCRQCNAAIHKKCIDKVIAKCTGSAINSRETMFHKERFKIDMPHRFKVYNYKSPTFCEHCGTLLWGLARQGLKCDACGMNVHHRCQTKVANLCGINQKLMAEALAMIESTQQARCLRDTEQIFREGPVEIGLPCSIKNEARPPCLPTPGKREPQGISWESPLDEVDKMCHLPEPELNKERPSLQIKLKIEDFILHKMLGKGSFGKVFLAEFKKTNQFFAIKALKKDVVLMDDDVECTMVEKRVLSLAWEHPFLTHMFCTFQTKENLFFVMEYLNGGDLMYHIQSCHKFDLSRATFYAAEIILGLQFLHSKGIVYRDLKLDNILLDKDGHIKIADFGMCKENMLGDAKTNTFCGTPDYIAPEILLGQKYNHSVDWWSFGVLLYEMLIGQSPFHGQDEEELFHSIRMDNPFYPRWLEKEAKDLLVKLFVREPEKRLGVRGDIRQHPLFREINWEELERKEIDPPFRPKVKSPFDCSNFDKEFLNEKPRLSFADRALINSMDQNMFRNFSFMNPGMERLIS
row,SMILES,IC50 [nM]
1,"Oc1ccc(CCNc2nccc(-c3cccc(CN4CC5CC4CN5)c3)n2)cc1 (centres unmarked) [Compound 266, 4-(2-{4-[3-(2,5-Diaza-bicyclo[2.2.1]hept-2-ylmethyl)-phenyl]-pyrimidin-2-ylamino}-ethyl)-phenol]",< 100
2,"CN1CCN(Cc2cccc(-c3ccnc(NCCc4ccc(O)cc4)n3)c2)CC1 [Compound 81, 4-(2-{4-[3-(4-Methyl-piperazin-1-ylmethyl)-phenyl]-pyrimidin-2-ylamino}-ethyl)-phenol]",< 100
3,Cc1ncccc1C(=O)NCCCN(Cc1cccc(-c2ccnc(NCCc3ccc(O)cc3)n2)c1)S(C)(=O)=O [Compound 62],< 100
4,"CC(C)NCc1cccc(-c2ccnc(NCCc3ccc(O)c(Cl)c3)n2)c1 [Compound 132, 2-Chloro-4-(2-{4-[3-(isopropylamino-methyl)-phenyl]-pyrimidin-2-ylamino}-ethyl)-phenol]",< 100
5,"Oc1cccc(CCNc2nccc(-c3cccc(NC4CCNCC4)c3)n2)c1 [Compound 49, 3-(2-{4-[3-(Piperidin-4-ylamino)-phenyl]-pyrimidin-2-ylamino}-ethyl)-phenol]",< 100

# The remaining lines, values ahead:
row,IC50 [nM],SMILES
1,< 100,"CCN(CC)CCCNCc1cccc(-c2ccnc(NCCc3ccc(O)cc3)n2)c1 [Compound 125, 4-[2-(4-{3-[(3-Diethylamino-propylamino)-methyl]-phenyl}-pyrimidin-2-ylamino)-ethyl]-phenol]"
2,< 100,"CC(O)c1cccc(-c2ccnc(NCCc3ccc(O)cc3)n2)c1 (centres unmarked) [Compound 121, 4-(2-{4-[3-(1-Hydroxy-ethyl)-phenyl]-pyrimidin-2-ylamino}-ethyl)-phenol]"
3,< 100,"CCN(Cc1cccnc1)c1cccc(-c2ccnc(NCCc3ccc(O)cc3)n2)c1 [Compound 80, 4-(2-{4-[3-(Ethyl-pyridin-3-ylmethyl-amino)-phenyl]-pyrimidin-2-ylamino}-ethyl)-phenol]"
